Reference: the NIST ThermoML archive (doi:10.1016/j.jct.2007.10.004)
Numbers after ± are expanded uncertainties. One block for each compound: values may come before it.

What was measured:
[1] = Solid-liquid equilibrium temperature; settings: Crystal
[2] = Molar enthalpy of transition or fusion; settings: Crystal; DSC
[3] = Crystal

- Molar enthalpy of transition or fusion [2]: 0.809 ± 0.0406 kcal/mol
- Normal melting temperature ([3]; DTA): -51.70 ± 0.4 °C
Compound: CC(=O)OC1CCCCC1 [cyclohexyl ethanoate]

- Normal melting temperature ([3]; DTA): -51.70 ± 0.39 °C
Compound: CC(=O)OCCC1CCCCC1 [cyclohexylethyl acetate]

- Solid-liquid equilibrium temperature ([1]; 216000 kPa, Closed cell (Static) method): 303.15 ± 1.7 K
- Solid-liquid equilibrium temperature ([1]; 268000 kPa, Closed cell (Static) method): 313.15 ± 1.9 K
- Solid-liquid equilibrium temperature ([1]; 329000 kPa, Closed cell (Static) method): 323.15 ± 2 K
- Solid-liquid equilibrium temperature ([1]; 400000 kPa, Closed cell (Static) method): 333.15 ± 2.2 K
- Solid-liquid equilibrium temperature ([1]; 480000 kPa, Closed cell (Static) method): 343.15 ± 2.3 K
- Solid-liquid equilibrium temperature ([1]; 569000 kPa, Closed cell (Static) method): 353.15 ± 2.6 K
- Normal melting temperature [3]: -14.60 ± 0.62 °C
Compound: CCCCCCCCO [octan-1-ol]

Second part, the compound before the results:

Compound: O=C(O)C1CCCCC1 [cyclohexanecarboxylic acid]
- Solid-liquid equilibrium temperature ([1]; 800 kPa, visual observation): 303.15 ± 0.26 K
- Solid-liquid equilibrium temperature ([1]; 31000 kPa, visual observation): 313.15 ± 0.52 K
- Solid-liquid equilibrium temperature ([1]; 63000 kPa, visual observation): 323.15 ± 0.9 K
- Solid-liquid equilibrium temperature ([1]; 92000 kPa, visual observation): 333.15 ± 1.3 K
- Solid-liquid equilibrium temperature ([1]; 121000 kPa, visual observation): 343.15 ± 1.7 K
- Solid-liquid equilibrium temperature ([1]; 150000 kPa, visual observation): 353.15 ± 2.1 K
- Molar enthalpy of transition or fusion [2]: 2.2 ± 0.0645 kcal/mol
- Normal melting temperature ([3]; DTA): 29.8 ± 0.5 °C

Compound: O=C(O)CC1CCCCC1 [cyclohexylethanoic acid]
- Molar enthalpy of transition or fusion [2]: 3.3 ± 0.086 kcal/mol
- Normal melting temperature ([3]; DTA): 28.8 ± 0.4 °C
